The results in this text go back to PubChem BioAssay AID180 (DTP/NCI, 2004).

The experiment concerns BDF1 mice, Adenocarcinoma 755 s.c., tumor weight T/C. Nature of the experiment: NCI In Vivo Anticancer Drug Screen. Data for tumor model Adenocarcinoma 755 (subcutaneous) in B6D2F1 (BDF1) mice. Particulars: endpoint: mean tumor weight, higher = larger tumour. The essentials:
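Transplantable tumor implanted; mice dosed with compound or vehicle; survival or tumor size recorded; ratio of treated to vehicle control reported.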

Setting [1] is: dose: 75.0 mg/kg/injection, schedule: Q01DX011 (ip), vehicle: carboxymethylcellulose (CMC).
[2] abbreviates: dose: 31.0 mg/kg/injection, schedule: Q01DX011 (ip), vehicle: methylcellulose (MC).
[3] abbreviates: dose: 62.0 mg/kg/injection, schedule: Q01DX011 (ip), vehicle: methylcellulose (MC).
Setting [4] is: dose: 250.0 mg/kg/injection, schedule: Q01DX011 (ip), vehicle: methylcellulose (MC).

Values joined by “and” are separate entries in the source; they are usually repeats but may differ in a detail not shown here. Identical values can stand only once.

On to `C1CN1c1nc(N2CC2)nc(N2CC2)n1`, for which the T/C was 90 % of control (dose: 0.03 mg/kg/injection, schedule: Q01DX011 (ip), vehicle: carboxymethylcellulose (CMC)); 80 % of control (dose: 0.05 mg/kg/injection, schedule: Q01DX011 (ip), vehicle: carboxymethylcellulose (CMC)); 36 % of control (dose: 0.1 mg/kg/injection, schedule: Q01DX011 (ip), vehicle: carboxymethylcellulose (CMC)); 65 % of control (dose: 0.1 mg/kg/injection, schedule: Q02DX011 (ip), vehicle: carboxymethylcellulose (CMC)); 49 % of control (dose: 0.2 mg/kg/injection, schedule: Q02DX011 (ip), vehicle: carboxymethylcellulose (CMC)); 8 % of control (dose: 0.5 mg/kg/injection, schedule: Q01DX011 (ip), vehicle: saline). Besides, the T/C reads like this: (dose: 49.0 micrograms/kg/injection, schedule: Q01DX011 (ip), vehicle: carboxymethylcellulose (CMC)) 86 % of control; (dose: 67.0 micrograms/kg/injection, schedule: Q01DX011 (ip), vehicle: carboxymethylcellulose (CMC)) 213 % of control; (dose: 98.0 micrograms/kg/injection, schedule: Q01DX011 (ip), vehicle: carboxymethylcellulose (CMC)) 88 % of control; (dose: 134.0 micrograms/kg/injection, schedule: Q01DX011 (ip), vehicle: carboxymethylcellulose (CMC)) 101 % of control; (dose: 150.0 micrograms/kg/injection, schedule: Q01DX011 (ip), vehicle: saline) 63 % of control; (dose: 260.0 micrograms/kg/injection, schedule: Q01DX011 (ip), vehicle: carboxymethylcellulose (CMC)) 57 % of control and 77 % of control. In addition, the T/C (dose: 268.0 micrograms/kg/injection, schedule: Q01DX011 (ip), vehicle: carboxymethylcellulose (CMC)) was 82 % of control; the T/C (dose: 300.0 micrograms/kg/injection, schedule: Q01DX011 (ip), vehicle: saline) is 33 % of control; the T/C (dose: 536.0 micrograms/kg/injection, schedule: Q01DX011 (ip), vehicle: carboxymethylcellulose (CMC)) is 18 % of control; the T/C (dose: 600.0 micrograms/kg/injection, schedule: Q01DX011 (ip), vehicle: saline) was 7 % of control.

For the compound `CC(C)C(=O)OCC1OC(n2cnc3c(=S)nc(N)[nH]c32)C(OC(=O)C(C)C)C1OC(=O)C(C)C` (configuration not stated), the T/C is, setting by setting: (dose: 1.5 mg/kg/injection, schedule: Q01DX011 (ip), vehicle: carboxymethylcellulose (CMC)) 76 % of control and 79 % of control; (dose: 3.0 mg/kg/injection, schedule: Q01DX011 (ip), vehicle: carboxymethylcellulose (CMC)) 43 % of control; (dose: 6.0 mg/kg/injection, schedule: Q01DX011 (ip), vehicle: carboxymethylcellulose (CMC)) 25 % of control; (dose: 12.0 mg/kg/injection, schedule: Q01DX011 (ip), vehicle: carboxymethylcellulose (CMC)) 18 % of control.

Consider `NS(=O)(=O)c1nc(Cl)c2[nH]cnc2n1`, for which the T/C runs as follows: (dose: 25.0 mg/kg/injection, schedule: Q01DX011 (ip), vehicle: carboxymethylcellulose (CMC)) 116 % of control; under setting [1], 73 % of control; (dose: 225.0 mg/kg/injection, schedule: Q01DX011 (ip), vehicle: carboxymethylcellulose (CMC)) 69 % of control.

With `Ic1ncnc2c1ncn2C1CCCO1` (configuration not stated), the T/C runs as follows: (dose: 50.0 mg/kg/injection, schedule: Q01DX011 (ip), vehicle: carboxymethylcellulose (CMC)) 94 % of control; (dose: 100.0 mg/kg/injection, schedule: Q01DX011 (ip), vehicle: carboxymethylcellulose (CMC)) 84 % of control.

Consider `C[N+](C)(C)C(C(=O)c1ccccc1)c1ccccc1` (configuration not stated), for which, under “dose: 10.0 mg/kg/injection, schedule: Q01DX011 (ip), vehicle: carboxymethylcellulose (CMC)”, the T/C was 124 % of control.

`CCCCN=NNc1nc[nH]c1C(N)=O`: the T/C is 124 % of control (dose: 16.0 mg/kg/injection, schedule: Q01DX011 (ip), vehicle: methylcellulose (MC)); 75 % of control under setting [2]; 79 % of control under setting [3].

In the case of `Nc1nc(Cl)cc(Nc2ccccc2Br)n1`, the T/C was 66 % of control (dose: 15.0 mg/kg/injection, schedule: Q01DX011 (ip), vehicle: methylcellulose (MC)); 87 % of control under setting [2]; 88 % of control under setting [3]; 79 % of control (dose: 125.0 mg/kg/injection, schedule: Q01DX011 (ip), vehicle: methylcellulose (MC)); 121 % of control under setting [4].

As for `CC1(c2ccccc2)O[C@@H]2C[C@H]3[C@@H]4CCC5=CC(=O)C=C[C@]5(C)[C@@]4(F)[C@@H](O)C[C@]3(C)[C@]2(C(=O)CO)O1` (some centres not stated), the T/C runs as follows: (dose: 2.75 mg/kg/injection, schedule: Q01DX011 (sc), vehicle: steriod suspending solution) 42 % of control and 45 % of control; (dose: 5.5 mg/kg/injection, schedule: Q01DX011 (sc), vehicle: steriod suspending solution) 14 % of control and 24 % of control; (dose: 11.0 mg/kg/injection, schedule: Q01DX011 (sc), vehicle: steriod suspending solution) 2 % of control and 24 % of control.

`Cc1ccccc1N(C=O)c1ccccc1C`: the T/C is 108 % of control under setting [4]; 120 % of control (dose: 500.0 mg/kg/injection, schedule: Q01DX011 (ip), vehicle: methylcellulose (MC)); 110 % of control (dose: 1000.0 mg/kg/injection, schedule: Q01DX011 (ip), vehicle: methylcellulose (MC)).

With `CC(=O)NCC(=O)O`, the T/C is 106 % of control (dose: 100.0 mg/kg/injection, schedule: Q01DX011 (ip), vehicle: other); 74 % of control (dose: 200.0 mg/kg/injection, schedule: Q01DX011 (ip), vehicle: other); 87 % of control (dose: 800.0 mg/kg/injection, schedule: Q01DX011 (ip), vehicle: other).

On to `Ic1ncnc2nc[nH]c12`, for which the T/C is, setting by setting: (dose: 2.5 mg/kg/injection, schedule: Q01DX011 (ip), vehicle: carboxymethylcellulose (CMC)) 90 % of control; (dose: 3.2 mg/kg/injection, schedule: Q01DX011 (oral), vehicle: carboxymethylcellulose (CMC)) 78 % of control; (dose: 5.0 mg/kg/injection, schedule: Q01DX011 (ip), vehicle: carboxymethylcellulose (CMC)) 90 % of control; (dose: 7.5 mg/kg/injection, schedule: Q01DX011 (oral), vehicle: carboxymethylcellulose (CMC)) 41 % of control; (dose: 15.0 mg/kg/injection, schedule: Q01DX011 (oral), vehicle: carboxymethylcellulose (CMC)) 14 % of control; (dose: 62.5 mg/kg/injection, schedule: Q01DX011 (ip), vehicle: carboxymethylcellulose (CMC)) 21 % of control.

Take `O=c1[nH]cnc2c1ncn2C1CCCO1` (configuration not stated): the T/C (dose: 30.0 mg/kg/injection, schedule: Q01DX011 (ip), vehicle: carboxymethylcellulose (CMC)) was 80 % of control; the T/C (dose: 60.0 mg/kg/injection, schedule: Q01DX011 (ip), vehicle: carboxymethylcellulose (CMC)) was 105 % of control; the T/C (dose: 120.0 mg/kg/injection, schedule: Q01DX011 (ip), vehicle: carboxymethylcellulose (CMC)) was 106 % of control; the T/C (dose: 240.0 mg/kg/injection, schedule: Q01DX011 (ip), vehicle: carboxymethylcellulose (CMC)) was 75 % of control.

In the case of `O=C(Nc1ccc(NC(=O)Nc2cccc(C3=NCCN3)c2)cc1)Nc1cccc(C2=NCCN2)c1`, the T/C by setting is: (dose: 18.75 mg/kg/injection, schedule: Q01DX011 (ip), vehicle: carboxymethylcellulose (CMC)) 85 % of control; (dose: 37.5 mg/kg/injection, schedule: Q01DX011 (ip), vehicle: carboxymethylcellulose (CMC)) 73 % of control; under setting [1], 73 % of control; (dose: 150.0 mg/kg/injection, schedule: Q01DX011 (ip), vehicle: carboxymethylcellulose (CMC)) 112 % of control.
